# Reference: ChEMBL document CHEMBL3885861, “Open TG-GATES”
# Species: Rattus norvegicus
# Test: Open TG-GATES - Regimen: Daily Repeat
# Assay type: toxicity, organism-based, Sprague-Dawley
# Parameters: regimen Daily Repeat, gender Male, age 6 weeks
# Details: in vivo, po, route gavage; for APTT / Bas / Eos / Fbg / Hb / Ht / Lym / MCHC / MCV / Mono / Neu / PT / Plat / RBC / Ret / WBC: tissue Blood; for KIDNEY_L / KIDNEY_R / KIDNEY_TOTAL: tissue Kidney; for LIVER: tissue Liver; for ALP / ALT / AST / CRE / DBIL / GLC / IP / K / LDH / Na / PL / RALB / TBIL / TC / TG / TP / gamma-GTP: tissue Plasma
# [1] = 300 mg/kg, 72 h, dose level Middle, time 3 day
# [2] = 300 mg/kg, […], dose level Middle, time 7 day
# [3] = 300 mg/kg, […], dose level Middle, time 14 day
# [4] = 300 mg/kg, […], dose level Middle, time 28 day
# [5] = 1000 mg/kg, 72 h, dose level High, time 3 day
# [6] = 1000 mg/kg, […], dose level High, time 7 day
# [7] = 1000 mg/kg, […], dose level High, time 14 day
# [8] = 1000 mg/kg, […], dose level High, time 28 day
smiles,measurement,setting,value
C#C[C@]1(O)CC[C@H]2[C@@H]3CCC4=Cc5oncc5C[C@]4(C)[C@H]3CC[C@@]21C [DANAZOL],TERMINAL_BW,[1],238.4 g
same,APTT,[1],22.7 s
same,Bas,[1],0%
same,Eos,[1],1%
same,Fbg,[1],355.8 mg/dL
same,Hb,[1],13.5 g/dL
same,Ht,[1],40.3%
same,Lym,[1],80%
same,MCHC,[1],33.4%
same,MCV,[1],62.4 fL
same,Mono,[1],2.4%
same,Neu,[1],15.8%
same,PT,[1],16.5 s
same,Plat,[1],115.8 x10_4/uL
same,RBC,[1],645.6 x10_4/ul
same,Ret,[1],6.6%
same,WBC,[1],87.1 x10_2/uL
same,KIDNEY_L,[1],1.1 g
same,KIDNEY_R,[1],1.1 g
same,KIDNEY_TOTAL,[1],2.2 g
same,LIVER,[1],12.4 g
same,ALP,[1],1638.6 IU/L
same,ALT,[1],45.2 IU/L
same,AST,[1],65.8 IU/L
same,CRE,[1],0.2 mg/dL
same,DBIL,[1],0 mg/dL
same,GLC,[1],180.2 mg/dL
same,IP,[1],7.9 mg/dL
same,K,[1],4.5 meq/L
same,LDH,[1],169.6 IU/L
same,Na,[1],141.6 meq/L
same,PL,[1],129.6 mg/dL
same,RALB,[1],3.1 g/dL
same,TBIL,[1],0.004 mg/dL
same,TC,[1],50.2 mg/dL
same,TG,[1],172.2 mg/dL
same,TP,[1],5.7 g/dL
same,gamma-GTP,[1],2 IU/L
same,TERMINAL_BW,[2],263.9 g
same,TERMINAL_BW,[3],303.4 g
same,TERMINAL_BW,[4],343.4 g
same,APTT,[2],25.7 s
same,Bas,[2],0%
same,Eos,[2],0.8%
same,Fbg,[2],360 mg/dL
same,Hb,[2],13.9 g/dL
same,Ht,[2],41.1%
same,Lym,[2],81.8%
same,MCHC,[2],33.8%
same,MCV,[2],61.8 fL
same,Mono,[2],2%
same,Neu,[2],14.8%
same,PT,[2],16.2 s
same,Plat,[2],127.5 x10_4/uL
same,RBC,[2],666.4 x10_4/ul
same,Ret,[2],5.3%
same,WBC,[2],104.2 x10_2/uL
same,APTT,[3],26.4 s
same,Bas,[3],0%
same,Eos,[3],0.8%
same,Fbg,[3],334.2 mg/dL
same,Hb,[3],14.6 g/dL
same,Ht,[3],41.2%
same,Lym,[3],85.2%
same,MCHC,[3],35.4%
same,MCV,[3],58.8 fL
same,Mono,[3],2.4%
same,Neu,[3],10.8%
same,PT,[3],17.3 s
same,Plat,[3],124.6 x10_4/uL
same,RBC,[3],701.4 x10_4/ul
same,Ret,[3],2.8%
same,WBC,[3],113.8 x10_2/uL
same,APTT,[4],26.1 s
same,Bas,[4],0%
same,Eos,[4],0.6%
same,Fbg,[4],310.8 mg/dL
same,Hb,[4],14.5 g/dL
same,Ht,[4],42.2%
same,Lym,[4],84.2%
same,MCHC,[4],34.5%
same,MCV,[4],54.1 fL
same,Mono,[4],1.8%
same,Neu,[4],12.4%
same,PT,[4],17.9 s
same,Plat,[4],108.2 x10_4/uL
same,RBC,[4],779.4 x10_4/ul
same,Ret,[4],2%
same,WBC,[4],79.9 x10_2/uL
same,KIDNEY_L,[2],1.2 g
same,KIDNEY_R,[2],1.2 g
same,KIDNEY_TOTAL,[2],2.4 g
same,KIDNEY_L,[3],1.3 g
same,KIDNEY_R,[3],1.3 g
same,KIDNEY_TOTAL,[3],2.6 g
same,KIDNEY_L,[4],1.4 g
same,KIDNEY_R,[4],1.3 g
same,KIDNEY_TOTAL,[4],2.7 g
same,LIVER,[2],13.6 g
same,LIVER,[3],14.9 g
same,LIVER,[4],14.9 g
same,ALP,[2],1469 IU/L
same,ALT,[2],42.6 IU/L
same,AST,[2],64 IU/L
same,CRE,[2],0.2 mg/dL
same,DBIL,[2],0 mg/dL
same,GLC,[2],181.6 mg/dL
same,IP,[2],6.5 mg/dL
same,K,[2],4.3 meq/L
same,LDH,[2],134.6 IU/L
same,Na,[2],142.2 meq/L
same,PL,[2],132.2 mg/dL
same,RALB,[2],3.1 g/dL
same,TBIL,[2],0.002 mg/dL
same,TC,[2],49.4 mg/dL
same,TG,[2],210.2 mg/dL
same,TP,[2],5.8 g/dL
same,gamma-GTP,[2],1.8 IU/L
same,ALP,[3],1443.4 IU/L
same,ALT,[3],35.6 IU/L
same,AST,[3],58 IU/L
same,CRE,[3],0.2 mg/dL
same,DBIL,[3],0 mg/dL
same,GLC,[3],170 mg/dL
same,IP,[3],6.8 mg/dL
same,K,[3],4.3 meq/L
same,LDH,[3],134.8 IU/L
same,Na,[3],141.8 meq/L
same,PL,[3],115 mg/dL
same,RALB,[3],3.1 g/dL
same,TBIL,[3],0 mg/dL
same,TC,[3],35.6 mg/dL
same,TG,[3],240.6 mg/dL
same,TP,[3],6 g/dL
same,gamma-GTP,[3],2.4 IU/L
same,ALP,[4],1201.6 IU/L
same,ALT,[4],35.6 IU/L
same,AST,[4],57.6 IU/L
same,CRE,[4],0.2 mg/dL
same,DBIL,[4],0 mg/dL
same,GLC,[4],178 mg/dL
same,IP,[4],5.8 mg/dL
same,K,[4],4 meq/L
same,LDH,[4],121.6 IU/L
same,Na,[4],142.2 meq/L
same,PL,[4],130.4 mg/dL
same,RALB,[4],3.1 g/dL
same,TBIL,[4],0.002 mg/dL
same,TC,[4],41.4 mg/dL
same,TG,[4],280.2 mg/dL
same,TP,[4],6.2 g/dL
same,gamma-GTP,[4],2.8 IU/L
same,TERMINAL_BW,[5],232.8 g
same,APTT,[5],23.9 s
same,Bas,[5],0%
same,Eos,[5],1%
same,Fbg,[5],355.8 mg/dL
same,Hb,[5],13.1 g/dL
same,Ht,[5],39.4%
same,Lym,[5],83%
same,MCHC,[5],33.3%
same,MCV,[5],63 fL
same,Mono,[5],3%
same,Neu,[5],12.2%
same,PT,[5],16.6 s
same,Plat,[5],122.2 x10_4/uL
same,RBC,[5],626 x10_4/ul
same,Ret,[5],5.3%
same,WBC,[5],100.4 x10_2/uL
same,KIDNEY_L,[5],1.1 g
same,KIDNEY_R,[5],1.1 g
same,KIDNEY_TOTAL,[5],2.2 g
same,LIVER,[5],13.1 g
same,ALP,[5],1658.2 IU/L
same,ALT,[5],39.2 IU/L
same,AST,[5],60.6 IU/L
same,CRE,[5],0.2 mg/dL
same,DBIL,[5],0 mg/dL
same,GLC,[5],173.4 mg/dL
same,IP,[5],7.6 mg/dL
same,K,[5],4.5 meq/L
same,LDH,[5],153.4 IU/L
same,Na,[5],141 meq/L
same,PL,[5],116.2 mg/dL
same,RALB,[5],3.1 g/dL
same,TBIL,[5],0 mg/dL
same,TC,[5],47.2 mg/dL
same,TG,[5],132.6 mg/dL
same,TP,[5],5.8 g/dL
same,gamma-GTP,[5],2 IU/L
same,TERMINAL_BW,[6],261.4 g
same,TERMINAL_BW,[7],289.1 g
same,TERMINAL_BW,[8],372.5 g
same,APTT,[6],25.7 s
same,Bas,[6],0%
same,Eos,[6],0.8%
same,Fbg,[6],351.6 mg/dL
same,Hb,[6],14 g/dL
same,Ht,[6],41.5%
same,Lym,[6],86.4%
same,MCHC,[6],33.8%
same,MCV,[6],60 fL
same,Mono,[6],1.6%
same,Neu,[6],10.4%
same,PT,[6],16.7 s
same,Plat,[6],143.9 x10_4/uL
same,RBC,[6],693.2 x10_4/ul
same,Ret,[6],4.9%
same,WBC,[6],103.6 x10_2/uL
same,APTT,[7],28.9 s
same,Bas,[7],0%
same,Eos,[7],0.8%
same,Fbg,[7],345.6 mg/dL
same,Hb,[7],14.8 g/dL
same,Ht,[7],42.1%
same,Lym,[7],86.8%
same,MCHC,[7],35.2%
same,MCV,[7],57.3 fL
same,Mono,[7],2.2%
same,Neu,[7],9.6%
same,PT,[7],17.1 s
same,Plat,[7],119 x10_4/uL
same,RBC,[7],734.6 x10_4/ul
same,Ret,[7],2.4%
same,WBC,[7],81.2 x10_2/uL
same,APTT,[8],27.7 s
same,Bas,[8],0%
same,Eos,[8],1.2%
same,Fbg,[8],320.6 mg/dL
same,Hb,[8],14.3 g/dL
same,Ht,[8],41.9%
same,Lym,[8],79.4%
same,MCHC,[8],34.1%
same,MCV,[8],56.1 fL
same,Mono,[8],3%
same,Neu,[8],15.8%
same,PT,[8],18.2 s
same,Plat,[8],112.3 x10_4/uL
same,RBC,[8],749 x10_4/ul
same,Ret,[8],2.2%
same,WBC,[8],69.9 x10_2/uL
same,KIDNEY_L,[6],1.1 g
same,KIDNEY_R,[6],1.2 g
same,KIDNEY_TOTAL,[6],2.3 g
same,KIDNEY_L,[7],1.3 g
same,KIDNEY_R,[7],1.4 g
same,KIDNEY_TOTAL,[7],2.7 g
same,KIDNEY_L,[8],1.5 g
same,KIDNEY_R,[8],1.5 g
same,KIDNEY_TOTAL,[8],3 g
same,LIVER,[6],13.2 g
same,LIVER,[7],15 g
same,LIVER,[8],18 g
same,ALP,[6],1593 IU/L
same,ALT,[6],36.4 IU/L
same,AST,[6],61.2 IU/L
same,CRE,[6],0.1 mg/dL
same,DBIL,[6],0 mg/dL
same,GLC,[6],184 mg/dL
same,IP,[6],7 mg/dL
same,K,[6],4.3 meq/L
same,LDH,[6],136.6 IU/L
same,Na,[6],142.4 meq/L
same,PL,[6],121 mg/dL
same,RALB,[6],3.2 g/dL
same,TBIL,[6],0 mg/dL
same,TC,[6],44.2 mg/dL
same,TG,[6],200.6 mg/dL
same,TP,[6],5.8 g/dL
same,gamma-GTP,[6],2.4 IU/L
same,ALP,[7],1541.2 IU/L
same,ALT,[7],37.6 IU/L
same,AST,[7],58.6 IU/L
same,CRE,[7],0.2 mg/dL
same,DBIL,[7],0 mg/dL
same,GLC,[7],174.8 mg/dL
same,IP,[7],7.2 mg/dL
same,K,[7],4.3 meq/L
same,LDH,[7],133.8 IU/L
same,Na,[7],142.2 meq/L
same,PL,[7],124.2 mg/dL
same,RALB,[7],3.1 g/dL
same,TBIL,[7],0 mg/dL
same,TC,[7],38.6 mg/dL
same,TG,[7],255.8 mg/dL
same,TP,[7],6.2 g/dL
same,gamma-GTP,[7],2.8 IU/L
same,ALP,[8],1028.8 IU/L
same,ALT,[8],37.6 IU/L
same,AST,[8],55.8 IU/L
same,CRE,[8],0.2 mg/dL
same,DBIL,[8],0 mg/dL
same,GLC,[8],177.8 mg/dL
same,IP,[8],6.6 mg/dL
same,K,[8],4.2 meq/L
same,LDH,[8],122.6 IU/L
same,Na,[8],141.6 meq/L
same,PL,[8],133.6 mg/dL
same,RALB,[8],3.2 g/dL
same,TBIL,[8],0 mg/dL
same,TC,[8],41.4 mg/dL
same,TG,[8],275.4 mg/dL
same,TP,[8],6.4 g/dL
same,gamma-GTP,[8],3.6 IU/L
